Measurements reported in ChEMBL document CHEMBL3580659, “One-pot multicomponent synthesis of indole incorporated thiazolylcoumarins and their antibacterial, anticancer and DNA cleavage studies” (2015).

Assays:
Assay type in all cases: functional
SNB-19 = assay: Cytotoxicity against human SNB19 cells assessed as cell growth level at 10 nM after 48 hrs by sulforhodamine B assay
HOP-62 = assay: Cytotoxicity against human HOP62 cells assessed as cell growth level at 10 uM after 48 hrs by sulforhodamine B assay
A549 = assay: Cytotoxicity against human A549/ATCC cells assessed as cell growth level at 100 uM after 48 hrs by sulforhodamine B assay
A498 = assay: Cytotoxicity against human A498 cells assessed as cell growth level at 10 nM after 48 hrs by sulforhodamine B assay
SK-OV-3 = assay: Cytotoxicity against human SKOV3 cells assessed as cell growth level at 10 uM after 48 hrs by sulforhodamine B assay
SF-539 [1] = assay: Cytotoxicity against human SF539 cells after 48 hrs by sulforhodamine B assay; settings: SF-539, 48 h
SN12C = assay: Cytotoxicity against human SN12C cells assessed as cell growth level at 1 uM after 48 hrs by sulforhodamine B assay
CAKI-1 [2] = assay: Cytotoxicity against human CAKI-1 cells assessed as cell growth level at 100 uM after 48 hrs by sulforhodamine B assay
HOP-92 = assay: Cytotoxicity against human HOP92 cells assessed as cell growth level at 10 nM after 48 hrs by sulforhodamine B assay
OVCAR-3 [3] = assay: Cytotoxicity against human OVCAR3 cells assessed as cell growth level at 100 uM after 48 hrs by sulforhodamine B assay
NCI-H522 [4] = assay: Cytotoxicity against human NCI-H522 cells assessed as cell growth level at 1 uM after 48 hrs by sulforhodamine B assay
MDA-MB-468 = assay: Cytotoxicity against human MDA-MB-468 cells after 48 hrs by sulforhodamine B assay; settings: MDA-MB-468, 48 h
RPMI-8226 [5] = assay: Cytotoxicity against human RPMI8226 cells assessed as cell growth level at 10 uM after 48 hrs by sulforhodamine B assay
MCF7 [6] = assay: Cytotoxicity against human MCF7 cells assessed as cell growth level at 10 uM after 48 hrs by sulforhodamine B assay
NCI-H522 [7] = assay: Cytotoxicity against human NCI-H522 cells assessed as cell growth level at 100 nM after 48 hrs by sulforhodamine B assay
MCF7 [8] = assay: Cytotoxicity against human MCF7 cells assessed as cell growth level at 100 nM after 48 hrs by sulforhodamine B assay
CAKI-1 [9] = assay: Cytotoxicity against human CAKI-1 cells after 48 hrs by sulforhodamine B assay; settings: CAKI-1, 48 h
SK-MEL-28 = assay: Cytotoxicity against human SK-MEL-28 cells assessed as cell growth level at 10 nM after 48 hrs by sulforhodamine B assay
RPMI-8226 [10] = assay: Cytotoxicity against human RPMI8226 cells assessed as cell growth level at 10 nM after 48 hrs by sulforhodamine B assay
MCF7 [11] = assay: Cytotoxicity against human MCF7 cells assessed as cell growth level at 1 uM after 48 hrs by sulforhodamine B assay
SF-268 = assay: Cytotoxicity against human SF268 cells assessed as cell growth level at 100 uM after 48 hrs by sulforhodamine B assay
CCRF-CEM = assay: Cytotoxicity against human CCRF-CEM cells assessed as cell growth level at 100 nM after 48 hrs by sulforhodamine B assay
OVCAR-4 = assay: Cytotoxicity against human OVCAR4 cells assessed as cell growth level at 10 uM after 48 hrs by sulforhodamine B assay
RXF 393 = assay: Cytotoxicity against human RXF393 cells assessed as cell growth level at 1 uM after 48 hrs by sulforhodamine B assay
OVCAR-5 = assay: Cytotoxicity against human OVCAR5 cells assessed as cell growth level at 10 nM after 48 hrs by sulforhodamine B assay
MOLT-4 = assay: Cytotoxicity against human MOLT4 cells assessed as cell growth level at 10 nM after 48 hrs by sulforhodamine B assay
HT-29 = assay: Cytotoxicity against human HT-29 cells assessed as cell growth level at 100 uM after 48 hrs by sulforhodamine B assay
SF-539 [12] = assay: Cytotoxicity against human SF539 cells assessed as cell growth level at 10 nM after 48 hrs by sulforhodamine B assay
M14 = assay: Cytotoxicity against human M14 cells assessed as cell growth level at 100 uM after 48 hrs by sulforhodamine B assay
T47D [13] = assay: Cytotoxicity against human T47D cells assessed as cell growth level at 100 uM after 48 hrs by sulforhodamine B assay
CAKI-1 [14] = assay: Cytotoxicity against human CAKI-1 cells assessed as cell growth level at 10 nM after 48 hrs by sulforhodamine B assay
RPMI-8226 [15] = assay: Cytotoxicity against human RPMI8226 cells after 48 hrs by sulforhodamine B assay; settings: RPMI-8226, 48 h
KM12 = assay: Cytotoxicity against human KM12 cells assessed as cell growth level at 100 uM after 48 hrs by sulforhodamine B assay
U-251 = assay: Cytotoxicity against human U251 cells after 48 hrs by sulforhodamine B assay; settings: U-251, 48 h
Escherichia coli = assay: Antibacterial activity against Escherichia coli assessed as bacterial growth inhibition at 50 ug/ml after 24 hrs by cup-plate agar diffusion method; settings: read-out: IZ
OVCAR-3 [16] = assay: Cytotoxicity against human OVCAR3 cells assessed as cell growth level at 10 nM after 48 hrs by sulforhodamine B assay
DU-145 = assay: Cytotoxicity against human DU145 cells assessed as cell growth level at 1 uM after 48 hrs by sulforhodamine B assay
UACC-62 = assay: Cytotoxicity against human UACC62 cells assessed as cell growth level at 10 nM after 48 hrs by sulforhodamine B assay
T47D [17] = assay: Cytotoxicity against human T47D cells assessed as cell growth level at 1 uM after 48 hrs by sulforhodamine B assay
SF-295 = assay: Cytotoxicity against human SF295 cells assessed as cell growth level at 10 nM after 48 hrs by sulforhodamine B assay
[18] = read-out: LC50 (the source's name)
[19] = read-out: pLC50 (the source's name) (converted)

O=c1oc2ccccc2cc1-c1csc(N/N=C/c2c[nH]c3ccccc23)n1
Activity (SNB-19): 91%
Activity (HOP-62): 11.3%
Activity (A549): -29%
Activity (A498): 95%
Activity (SK-OV-3): 62.24%
GI50 (SF-539 [1]; read-out: GI50): 1.58 µM
CC50 (SF-539 [1]; [18]): 7.25 µM
TGI (SF-539 [1]; read-out: TGI): 3.38 µM
GI50 (SF-539 [1]; read-out: pGI50 (converted)): 1.58 µM
CC50 (SF-539 [1]; [19]): 7.24 µM
TGI (SF-539 [1]; read-out: pTGI (converted)): 3.39 µM
Activity (SN12C): 45%
Activity (CAKI-1 [2]): -57%
Activity (HOP-92): 100%
Activity (OVCAR-3 [3]): -2%
Activity (NCI-H522 [4]): 103%
GI50 (MDA-MB-468; read-out: GI50): 1.52 µM
CC50 (MDA-MB-468; [18]): > 100 µM
TGI (MDA-MB-468; read-out: TGI): 3.92 µM
GI50 (MDA-MB-468; read-out: pGI50 (converted)): 1.51 µM
CC50 (MDA-MB-468; [19]): > 100 µM
TGI (MDA-MB-468; read-out: pTGI (converted)): 3.89 µM
Activity (RPMI-8226 [5]): -33.83%
Activity (MCF7 [6]): 8.91%
Activity (NCI-H522 [7]): 107%
Activity (MCF7 [8]): 95%
GI50 (CAKI-1 [9]; read-out: GI50): 1.61 µM
CC50 (CAKI-1 [9]; [18]): > 100 µM
TGI (CAKI-1 [9]; read-out: TGI): 4.65 µM
GI50 (CAKI-1 [9]; read-out: pGI50 (converted)): 1.62 µM
CC50 (CAKI-1 [9]; [19]): > 100 µM
TGI (CAKI-1 [9]; read-out: pTGI (converted)): 4.68 µM
Activity (SK-MEL-28): 94%
Activity (RPMI-8226 [10]): 99%
Activity (MCF7 [11]): 69%
Activity (SF-268): -21%
Activity (CCRF-CEM): 98%
Activity (OVCAR-4): -4.09%
Activity (RXF 393): 53%
Activity (OVCAR-5): 102%
Activity (MOLT-4): 92%
Activity (HT-29): -81%
Activity (SF-539 [12]): 95%
Activity (M14): -77%
Activity (T47D [13]): -35%
Activity (CAKI-1 [14]): 95%
GI50 (RPMI-8226 [15]; read-out: GI50): 0.9 µM
CC50 (RPMI-8226 [15]; [18]): > 100 µM
TGI (RPMI-8226 [15]; read-out: TGI): 4.79 µM
GI50 (RPMI-8226 [15]; read-out: pGI50 (converted)): 0.912 µM
CC50 (RPMI-8226 [15]; [19]): > 100 µM
TGI (RPMI-8226 [15]; read-out: pTGI (converted)): 4.79 µM
Activity (KM12): -52%
GI50 (U-251; read-out: GI50): 1.75 µM
CC50 (U-251; [18]): 77.7 µM
TGI (U-251; read-out: TGI): 5.6 µM
GI50 (U-251; read-out: pGI50 (converted)): 1.74 µM
CC50 (U-251; [19]): 77.6 µM
TGI (U-251; read-out: pTGI (converted)): 5.62 µM
zone of inhibition at 50 µg/mL (Escherichia coli): 15 mm
Activity (OVCAR-3 [16]): 99%
Activity (DU-145): 80%
Activity (UACC-62): 95%
Activity (T47D [17]): 81%
Activity (SF-295): 93%
